Key:
KRas WT = KRas WT (Homo sapiens, UniProt P01116); assay: biochemical;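 further: binding to KRas read as TR-FRET displacement after a one-hour room-temperature incubation, IC50 derived from percent-of-control values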
Method: (§2) The ability of a compound to bind to KRas was measured using a TR-FRET displacement assay. […] After a 60-minute incubation at room temperature, the reaction was measured using a BMG LABTECH CLARIO star Plus via TR-FRET. […] The POC values were fit to a 4-parameter IC50 equation and the IC50 value reported.

KRas G12D = KRas G12D (Homo sapiens, UniProt P01116, G12D); assay: biochemical;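 further: TR-FRET displacement binding assay on KRas, read after a one-hour incubation at room temperature, IC50 fitted from percent-of-control values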
Method: as §2

KRas G12V = KRas G12V (Homo sapiens, UniProt P01116, G12V); assay: biochemical;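 further: KRas binding measured by TR-FRET displacement at room temperature, IC50 fitted from percent of control values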
Chain of KRas G12V (P01116 1-169 isoform P01116-2 G12V): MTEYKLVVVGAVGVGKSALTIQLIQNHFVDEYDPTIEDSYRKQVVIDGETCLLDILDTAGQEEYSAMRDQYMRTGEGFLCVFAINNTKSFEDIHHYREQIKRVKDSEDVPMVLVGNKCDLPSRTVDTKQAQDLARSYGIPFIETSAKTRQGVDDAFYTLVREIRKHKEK
Method: as §2

KRas G12R = KRas G12R (Homo sapiens, UniProt P01116, G12R); assay: biochemical;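 further: TR-FRET displacement assay of compound binding to KRas, read after one hour at room temperature, potency from a four-parameter fit of percent-of-control values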
Chain of KRas G12R (P01116 1-169 isoform P01116-2 G12R): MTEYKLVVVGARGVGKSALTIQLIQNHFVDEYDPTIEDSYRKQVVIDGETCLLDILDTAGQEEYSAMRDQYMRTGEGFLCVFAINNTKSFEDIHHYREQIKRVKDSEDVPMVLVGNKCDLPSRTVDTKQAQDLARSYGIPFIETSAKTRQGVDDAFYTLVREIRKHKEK
Method: as §2

KRas G12C = KRas G12C (Homo sapiens, UniProt P01116, G12C); assay: biochemical;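 further: binding to KRas assessed by TR-FRET displacement after one hour incubation at room temperature, potency fitted from percent-of-control values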
Chain of KRas G12C (P01116 1-169 isoform P01116-2 G12C): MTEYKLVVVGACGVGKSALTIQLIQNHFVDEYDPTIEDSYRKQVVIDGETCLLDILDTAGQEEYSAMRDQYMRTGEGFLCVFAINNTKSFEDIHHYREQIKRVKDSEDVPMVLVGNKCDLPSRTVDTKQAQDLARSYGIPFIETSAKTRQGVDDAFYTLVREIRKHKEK
Method: as §2

KRas Q61H = molecular target: T1, KRas Q61H (Homo sapiens, UniProt P01116, Q61H); assay: KRas binding assay (TR-FRET displacement);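 further: TR-FRET signal read after one hour at room temperature, IC50 derived by four-parameter fitting of percent-of-control values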
T1 construct: Biotinylated KRas (corresponding to amino acids 1-169, produced at Accelegan Inc.); biotin (biotinylated); purchased Accelegan Inc
T1 sequence (P01116 1-169 isoform P01116-2 Q61H): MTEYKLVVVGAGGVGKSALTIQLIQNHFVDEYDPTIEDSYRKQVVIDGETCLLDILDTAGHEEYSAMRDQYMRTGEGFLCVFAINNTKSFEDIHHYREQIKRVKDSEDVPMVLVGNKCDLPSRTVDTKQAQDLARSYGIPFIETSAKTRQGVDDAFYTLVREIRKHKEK
Method: as §2

[1] = system: phospho-ERK in NCI-H460 (Q61H) cells; assay: Inhibition of KRas-mediated phosphorylation of ERK (in-cell western); type: cell-based; conditions: Homo sapiens, NCI-H460, 3 h, 3 hours compound, phospho-ERK normalized to GAPDH
Procedure, shortened: (§1)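 Following fixation in formaldehyde and permeabilization in cold methanol, ERK phosphorylated at Thr202/Tyr204 was quantified against GAPDH.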

[2] = system: phospho-ERK in AsPC-1 (G12D) cells; assay: as above; type: cell-based; conditions: Homo sapiens, ASPC1, 3 h, 3 hours compound, phospho-ERK normalized to GAPDH
Procedure, shortened: as §1

[3] = system: phospho-ERK in HCT116 (G13D) cells; assay: as above; type: cell-based; conditions: Homo sapiens, HCT-116, 3 hours compound, phospho-ERK normalized to GAPDH
Procedure, shortened: as §1

[4] = system: phospho-ERK in A549 (G12S) cells; assay: as above; type: cell-based; conditions: Homo sapiens, 3 hours compound, phospho-ERK normalized to GAPDH
Procedure, shortened: as §1

[5] = system: phospho-ERK in PSN-1 (G12R) cells; assay: as above; type: cell-based; conditions: Homo sapiens, PSN1, 3 hours compound, phospho-ERK normalized to GAPDH
Procedure, shortened: as §1

[6] = system: phospho-ERK in MKN1 (WTdep) cells; assay: as above; type: cell-based; conditions: Homo sapiens, MKN-1, 3 hours compound, phospho-ERK normalized to GAPDH
Procedure, shortened: as §1

[7] = system: phospho-ERK in NCI-H358 (G12C) cells; assay: as above; type: cell-based; conditions: Homo sapiens, 3 hours compound, phospho-ERK normalized to GAPDH
Procedure, shortened: as §1

[8] = system: phospho-ERK in NCI-H727 (G12V) cells; assay: as above; type: cell-based; conditions: Homo sapiens, NCI-H727, 3 h, 3 hours compound, phospho-ERK normalized to GAPDH
Procedure, shortened: as §1

KRas G12A = KRas G12A (Homo sapiens, UniProt P01116, G12A); assay: biochemical;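 further: binding to KRas measured by TR-FRET displacement after one hour at room temperature, IC50 from a four-parameter fit of percent-of-control values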
Chain of KRas G12A (P01116 1-169 isoform P01116-2 G12A): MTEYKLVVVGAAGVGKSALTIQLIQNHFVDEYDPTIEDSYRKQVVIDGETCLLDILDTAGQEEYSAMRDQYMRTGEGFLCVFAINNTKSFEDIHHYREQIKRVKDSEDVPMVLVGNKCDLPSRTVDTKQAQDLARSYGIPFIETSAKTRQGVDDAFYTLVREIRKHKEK
Method: as §2

KRas G13D = molecular target: T2, KRas G13D (Homo sapiens, UniProt P01116, G13D); assay: KRas binding assay (TR-FRET displacement);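 further: One-hour room temperature incubation before TR-FRET reading, IC50 from a four-parameter curve fit to percent-of-control data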
T2 construct: Biotinylated KRas (corresponding to amino acids 1-169, produced at Accelegan Inc.); biotin (biotinylated); purchased Accelegan Inc
T2 sequence (P01116 1-169 isoform P01116-2 G13D): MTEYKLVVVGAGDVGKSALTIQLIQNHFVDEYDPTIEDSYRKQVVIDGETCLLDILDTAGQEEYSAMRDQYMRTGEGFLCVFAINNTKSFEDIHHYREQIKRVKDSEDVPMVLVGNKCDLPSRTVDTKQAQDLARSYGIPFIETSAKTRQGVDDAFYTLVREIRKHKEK
Method: as §2

KRas G12S = KRas G12S (Homo sapiens, UniProt P01116, G12S); assay: biochemical;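 further: TR-FRET displacement binding to KRas, read after one hour incubation at room temperature, IC50 from four-parameter fit of percent of control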
Chain of KRas G12S (P01116 1-169 isoform P01116-2 G12S): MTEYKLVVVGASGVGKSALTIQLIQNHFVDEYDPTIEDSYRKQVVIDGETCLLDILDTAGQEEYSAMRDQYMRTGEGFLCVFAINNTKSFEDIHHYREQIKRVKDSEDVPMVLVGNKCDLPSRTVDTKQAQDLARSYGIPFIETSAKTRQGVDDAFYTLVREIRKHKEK
Method: as §2

pERK in H460 cells = assay: Inhibition of KRas phosphorylation of ERK (Cisbio HTRF pERK assay); conditions: Homo sapiens, NCI-H460, read-out: Inhibition (HTRF IC50) of KRas-mediated Phosphorylation of ERK, H460
pERK in HCT116 cells = assay: as above; conditions: Homo sapiens, HCT-116, read-out: Inhibition (HTRF IC50) of KRas-mediated Phosphorylation of ERK, HCT116
pERK in H727 cells = assay: as above; conditions: Homo sapiens, NCI-H727, read-out: Inhibition (HTRF IC50) of KRas-mediated Phosphorylation of ERK, H727
pERK in ASPC1 cells = assay: as above; conditions: Homo sapiens, ASPC1, read-out: Inhibition (HTRF IC50) of KRas-mediated Phosphorylation of ERK, AsPC-1

Chain of KRas WT (P01116 1-169 isoform P01116-2): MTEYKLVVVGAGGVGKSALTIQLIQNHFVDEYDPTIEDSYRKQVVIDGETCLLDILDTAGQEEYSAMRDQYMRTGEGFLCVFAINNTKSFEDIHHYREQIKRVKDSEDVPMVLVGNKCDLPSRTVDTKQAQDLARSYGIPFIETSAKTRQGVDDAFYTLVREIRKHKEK
Chain of KRas G12D (P01116 1-169 isoform P01116-2 G12D): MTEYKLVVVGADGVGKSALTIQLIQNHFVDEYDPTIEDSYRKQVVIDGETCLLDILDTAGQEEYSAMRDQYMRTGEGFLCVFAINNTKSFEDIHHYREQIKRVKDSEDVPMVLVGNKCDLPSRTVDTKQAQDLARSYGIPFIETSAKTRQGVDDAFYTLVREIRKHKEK

Row | Compound | IC50 (KRas WT) | IC50 (KRas G12D) | IC50 (KRas G12V) | IC50 (KRas G12R) | IC50 (KRas G12C) | IC50 (KRas Q61H) | IC50 [1] | IC50 [2] | IC50 [3] | IC50 [4] | IC50 [5] | IC50 [6] | IC50 [7] | IC50 [8] | IC50 (KRas G12A) | IC50 (KRas G13D) | IC50 (KRas G12S) | IC50 (pERK in H460 cells) | IC50 (pERK in HCT116 cells) | IC50 (pERK in H727 cells) | also measured
1 | CCc1c(F)ccc2cc(O)cc(-c3ncc4c(N5CCCCC5)nc(OC[C@@]56CCCN5C[C@H](O)C6)nc4c3F)c12 [Example 7] | 3 nM | ≤ 2 nM | ≤ 2 nM | ≤ 2 nM | ≤ 2 nM | 3 nM | 416 nM | 802 nM | 627 nM | 1090 nM | 3590 nM | 32 nM | 199 nM | 530 nM | ≤ 2 nM | 3 nM | ≤ 2 nM | – | – | – | –
2 | C#Cc1c(F)ccc2cccc(-c3ncc4c(N5CCC[C@@](C)(O)C5)nc(OCC56CCCN5CCC6)nc4c3F)c12 [Example 14, (R)-1-(7-(8-ethynyl-7-fluoronaphthalen-1-yl)-8-fluoro-2-((hexahydro-1H-pyrrolizin-7a-yl)methoxy)pyrido[4,3-d]pyrimidin-4-yl)-3-methylpiperidin-3-ol] | 51 nM | 29 nM | 52 nM | 109 nM | 51 nM | 80 nM | ≥ 10000 nM | 847 nM | 1590 nM | ≥ 10000 nM | ≥ 10000 nM | 1380 nM | 725 nM | 4580 nM | 58 nM | 61 nM | 58 nM | – | – | – | –
3 | CCc1c(F)ccc2cccc(-c3ncc4c(N5CCC[C@@](C)(O)C5)nc(OCC56CCCN5CCC6)nc4c3F)c12 [Example 15] | 41 nM | 24 nM | 42 nM | 81 nM | 37 nM | 52 nM | ≥ 10000 nM | 731 nM | 5160 nM | 3640 nM | ≥ 10000 nM | 1260 nM | 495 nM | ≥ 10000 nM | 38 nM | 42 nM | 42 nM | – | – | – | –
4 | CCc1c(F)ccc2cc(O)cc(-c3ncc4c(N5CCC[C@@](C)(O)C5)nc(OCC56CCCN5CCC6)nc4c3F)c12 [Example 27] | ≤ 2 nM | ≤ 2 nM | ≤ 2 nM | ≤ 2 nM | ≤ 2 nM | ≤ 2 nM | 33 nM | 45 nM | 88 nM | 300 nM | 2920 nM | 20 nM | 22 nM | 232 nM | ≤ 2 nM | ≤ 2 nM | ≤ 2 nM | – | – | – | –
5 | CCc1c(F)ccc2cccc(-c3ncc4c(N5CCCC6(CNC(=O)C6)C5)nc(OC[C@@]56CCCN5C[C@H](F)C6)nc4c3F)c12 (stereo partly drawn) [Example 37, 7-(7-(8-ethyl-7-fluoronaphthalen-1-yl)-8-fluoro-2-(((2R,7aS)-2-fluorotetrahydro-1H-pyrrolizin-7a(5H)-yl)methoxy)pyrido[4,3-d]pyrimidin-4-yl)-2,7-diazaspiro[4.5]decan-3-one] | 68 nM | 41 nM | 57 nM | 93 nM | 56 nM | 88 nM | ≥ 10000 nM | 2210 nM | 4360 nM | 8950 nM | ≥ 10000 nM | 1670 nM | 1720 nM | ≥ 10000 nM | 52 nM | 88 nM | 63 nM | – | – | – | –
6 | C#Cc1c(F)ccc2cccc(-c3ncc4c(N5CCC[C@@](C)(O)C5)nc(OC[C@@]56CCCN5C[C@H](F)C6)nc4c3F)c12 [Example 51, (R)-1-(7-(8-ethynyl-7-fluoronaphthalen-1-yl)-8-fluoro-2-(((2R,7aS)-2-fluorohexahydro-1H-pyrrolizin-7a-yl)methoxy)pyrido[4,3-d]pyrimidin-4-yl)-3-methylpiperidin-3-ol] | 32 nM | 21 nM | 35 nM | 69 nM | 35 nM | 50 nM | ≥ 10000 nM | 586 nM | 3720 nM | 2640 nM | ≥ 10000 nM | 873 nM | 715 nM | 7230 nM | 36 nM | 36 nM | 38 nM | – | – | – | –
7 | CCc1c(F)ccc2cc(O)cc(-c3ncc4c(N5CC6CC(O)CC5C6)nc(OC[C@@]56CCCN5C[C@H](F)C6)nc4c3F)c12 (stereo partly drawn) [Example 58] | – | 6 nM | ≤ 2 nM | ≤ 2 nM | – | – | 111 nM | 24 nM | 1460 nM | 455 nM | 1310 nM | 23 nM | 24 nM | 242 nM | – | – | – | 69 nM | 179 nM | 45 nM | IC50 (pERK in ASPC1 cells): 75 nM
8 | CCc1c(F)ccc2cc(O)cc(-c3ncc4c(N5CCCn6nc(N)cc6C5)nc(OC[C@@]56CCCN5C[C@H](F)C6)nc4c3F)c12 [Example 61, 4-(4-(2-amino-7,8-dihydro-4H-pyrazolo[1,5-a][1,4]diazepin-5 (6H)-yl)-8-fluoro-2-(((2R,7aS)-2-fluorohexahydro-1H-pyrrolizin-7a-yl)methoxy)pyrido[4,3-d]pyrimidin-7-yl)-5-ethyl-6-fluoronaphthalen-2-ol] | – | ≤ 2 nM | ≤ 2 nM | ≤ 2 nM | – | – | 550 nM | 306 nM | 518 nM | 699 nM | ≥ 10000 nM | 46 nM | 162 nM | 1110 nM | – | – | – | 336 nM | 1640 nM | 250 nM | IC50 (pERK in ASPC1 cells): 126 nM
9 | CCc1c(F)ccc2cc(O)cc(-c3ncc4c(N5CCOCC(CO)C5)nc(OC[C@@]56CCCN5C[C@H](F)C6)nc4c3F)c12 (stereo partly drawn) [Example 74, 5-ethyl-6-fluoro-4-(8-fluoro-2-(((2R,7aS)-2-fluorotetrahydro-1H-pyrrolizin-7a(5H)-yl)methoxy)-4-(6-(hydroxymethyl)-1,4-oxazepan-4-yl)pyrido[4,3-d]pyrimidin-7-yl)naphthalen-2-ol] | – | ≤ 2 nM | ≤ 2 nM | 3 nM | – | – | 55 nM | 72 nM | 662 nM | 63 nM | ≥ 10000 nM | 8 nM | 10 nM | 355 nM | – | – | – | 151 nM | 336 nM | 84 nM | IC50 (pERK in ASPC1 cells): 65 nM
10 | CCc1c(F)ccc2cc(O)cc(-c3ncc4c(NCc5cccnc5N)nc(OC[C@@]56CCCN5C[C@H](F)C6)nc4c3F)c12 [Example 136, 4-(4-(((2-aminopyridin-3-yl)methyl)amino)-8-fluoro-2-(((2R,7aS)-2-fluorohexahydro-1H-pyrrolizin-7a-yl)methoxy)pyrido[4,3-d]pyrimidin-7-yl)-5-ethyl-6-fluoronaphthalen-2-ol] | – | 3 nM | ≤ 2 nM | ≤ 2 nM | – | – | 75 nM | 351 nM | 631 nM | 19 nM | ≥ 10000 nM | 7 nM | 4 nM | 181 nM | – | – | – | 83 nM | 243 nM | 52 nM | IC50 (pERK in ASPC1 cells): 318 nM
